{
  "source": "patent US9079837B2",
  "about": "“Water-soluble fluorescent fullerene derivative, and preparation method thereof” (KOREA RESEARCH INSTITUTE OF BIOSCIENCE AND BIOTECHNOLOGY, priority 2010, dated 2015)",
  "origin": "cited, not measured here",
  "key": {"[1]": {"settings": "for fluorescence quantum yield: literature value (J. Am. Chem. Soc. 1993, 1994), room temperature"}, "[2]": {"settings": "water; Sivaraman et al., J. Org. Chem. 1992"}},
  "note": "Where a name gives a salt, the structure may show the parent alone. Read-outs that look alike come from different tables or passages of the source.",
  "data": [
    {"smiles": "C=C[C@H]1C[N@@]2CC[C@H]1C[C@H]2[C@H](O)c1ccnc2ccc(OC)cc12", "note": "[quinine sulfate]", "values": [
      {"measurement": "fluorescence quantum yield of standard", "setting": "[1]; standard value", "result": "55×10^−2"}
    ]},
    {"smiles": "c12c3c4c5c1c1c6c7c2c2c8c3c3c9c4c4c%10c5c5c1c1c6c6c%11c7c2c2c7c8c3c3c8c9c4c4c9c%10c5c5c1c1c6c6c%11c2c2c7c3c3c8c4c4c9c5c1c1c6c2c3c41", "note": "[C60 fullerene, buckminster fullerene (C60)]", "values": [
      {"measurement": "solubility", "setting": "[2]", "result": "1.3e-05", "unit": "ng/mL"},
      {"measurement": "fluorescence quantum yield", "setting": "[1]; listed as fullerenes", "result": "about 1×10^−4"},
      {"measurement": "fluorescence quantum yield", "setting": "[1]; listed as general fullerene", "result": "1×10^−4"}
    ]}
  ]
}
